In article PMC3894853 (Journal of medicinal chemistry, 2013):
Read-outs that look alike come from different tables or passages of the source.

How the values were obtained:
hSERT WT = hSERT WT (Homo sapiens, UniProt P31645)
SERT = SERT (Rattus norvegicus, UniProt P31652); test: Radioligand binding assay for SERT, displacement of [3H]1; conditions: for Ki(NET)/Ki (SERT): selectivity ratio
NET = NET (Rattus norvegicus, UniProt Q9WTR4); test: Radioligand binding assay for NET, displacement of [3H]nisoxetine
[1] = 30 µM compound, 18°C, COS-7 membranes, hSERT WT
[2] = 30 µM compound, extrapolated from 24°C with the temperature factor of S-1

SERT, sequence (P31652 whole entry): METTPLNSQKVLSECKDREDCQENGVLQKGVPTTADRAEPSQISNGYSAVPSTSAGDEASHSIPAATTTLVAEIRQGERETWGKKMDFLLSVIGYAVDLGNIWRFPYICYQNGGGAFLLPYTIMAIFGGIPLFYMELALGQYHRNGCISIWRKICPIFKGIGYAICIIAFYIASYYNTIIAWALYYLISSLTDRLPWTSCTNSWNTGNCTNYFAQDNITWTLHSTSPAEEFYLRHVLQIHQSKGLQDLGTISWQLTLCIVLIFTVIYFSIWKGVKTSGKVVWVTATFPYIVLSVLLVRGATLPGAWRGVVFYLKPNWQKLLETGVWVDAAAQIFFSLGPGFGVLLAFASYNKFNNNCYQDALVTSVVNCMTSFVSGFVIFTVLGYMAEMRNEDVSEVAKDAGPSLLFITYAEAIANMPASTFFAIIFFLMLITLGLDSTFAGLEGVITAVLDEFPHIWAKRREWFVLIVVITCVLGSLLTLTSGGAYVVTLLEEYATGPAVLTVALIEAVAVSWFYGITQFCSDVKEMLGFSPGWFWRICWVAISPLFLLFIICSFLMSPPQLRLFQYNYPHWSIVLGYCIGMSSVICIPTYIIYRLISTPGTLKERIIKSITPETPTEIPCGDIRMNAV
hSERT WT, sequence (P31645 whole entry): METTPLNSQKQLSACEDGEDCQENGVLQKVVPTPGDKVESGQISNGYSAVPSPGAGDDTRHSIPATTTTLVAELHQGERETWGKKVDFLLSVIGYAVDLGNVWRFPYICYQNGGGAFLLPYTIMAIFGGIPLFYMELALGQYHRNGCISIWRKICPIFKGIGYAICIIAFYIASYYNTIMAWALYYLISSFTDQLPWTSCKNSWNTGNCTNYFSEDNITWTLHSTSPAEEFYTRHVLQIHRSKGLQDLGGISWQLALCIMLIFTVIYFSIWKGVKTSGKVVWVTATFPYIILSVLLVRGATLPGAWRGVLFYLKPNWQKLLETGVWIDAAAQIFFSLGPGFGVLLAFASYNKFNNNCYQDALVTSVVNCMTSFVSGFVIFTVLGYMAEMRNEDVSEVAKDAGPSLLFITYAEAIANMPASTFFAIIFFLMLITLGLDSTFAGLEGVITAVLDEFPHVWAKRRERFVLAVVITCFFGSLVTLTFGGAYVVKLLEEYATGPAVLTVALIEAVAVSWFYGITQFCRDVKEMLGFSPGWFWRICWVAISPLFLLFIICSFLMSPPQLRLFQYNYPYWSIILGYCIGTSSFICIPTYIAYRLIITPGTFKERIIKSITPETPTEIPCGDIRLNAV
NET, sequence (Q9WTR4 1-597): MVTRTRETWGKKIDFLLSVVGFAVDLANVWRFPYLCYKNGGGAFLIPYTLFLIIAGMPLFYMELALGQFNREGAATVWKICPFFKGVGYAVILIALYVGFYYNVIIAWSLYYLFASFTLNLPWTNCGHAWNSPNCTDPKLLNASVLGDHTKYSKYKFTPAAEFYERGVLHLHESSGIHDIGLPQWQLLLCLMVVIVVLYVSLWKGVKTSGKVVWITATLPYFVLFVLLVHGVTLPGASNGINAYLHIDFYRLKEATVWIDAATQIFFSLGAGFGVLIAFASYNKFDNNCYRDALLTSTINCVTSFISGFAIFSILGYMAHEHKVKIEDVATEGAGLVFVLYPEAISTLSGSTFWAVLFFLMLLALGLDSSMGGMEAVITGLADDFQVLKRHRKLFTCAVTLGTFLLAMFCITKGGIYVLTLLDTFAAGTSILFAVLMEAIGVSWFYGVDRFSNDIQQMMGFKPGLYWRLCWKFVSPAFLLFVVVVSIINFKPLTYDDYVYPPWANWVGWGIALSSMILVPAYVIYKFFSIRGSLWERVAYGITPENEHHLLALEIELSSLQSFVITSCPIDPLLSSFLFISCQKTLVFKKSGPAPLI

[3H] S-1 dissoc. t½ (min) at 18°C (hSERT WT) | [3H] S-1 dissoc. t½ (min) at 18°C (hSERT WT; [1]) | Compound | also measured
16.4 ± 0.3 min | – | CN(C)CCCC1(c2ccc(F)cc2)OCc2cc(CN3CCN(c4ccccc4)CC3)ccc21 (stereo not drawn) [Compound 8, 3-(1-(4-Fluorophenyl)-5-((4-phenylpiperazin-1-yl)methyl)-1,3-dihydroisobenzofuran-1-yl)-N,N-dimethylpropan-1-amine] | –
– | 43.1 ± 6.2 min | CN(C)CCCC1(c2ccc(F)cc2)OCc2cc(-c3cccc(N)c3)ccc21 (stereo not drawn) [Compound 61] | –
23.1 ± 2.9 min | – | CN(C)CCCC1(c2ccc(F)cc2)OCc2cc(/C=C/Cc3ccccc3)ccc21 (stereo not drawn) [Compound 21, (E)-3-(1-(4-Fluorophenyl)-5-(3-phenylprop-1-en-1-yl)-1,3-dihydroisobenzofuran-1-yl)-N,N-dimethylpropan-1-amine] | –
33.2 ± 5.8 min | – | CN(C)CCCC1(c2ccc(F)cc2)OCc2c(I)cccc21 (stereo not drawn) [Compound 22, 3-(1-(4-Fluorophenyl)-4-iodo-1,3-dihydroisobenzofuran-1-yl)-N,N-dimethylpropan-1-amine] | –
– | 29.0 ± 1.3 min | CN(CCCC1(c2ccc(F)cc2)OCc2cc(C#N)ccc21)Cc1ccnc2ccccc12 (stereo not drawn) [Compound 48, 1-(4-Fluorophenyl)-1-(3-(methyl(quinolin-4-ylmethyl)amino)propyl)-1,3-dihydroisobenzofuran-5-carbonitrile] | –
– | – | CN(C)CCCC1(c2ccc(F)cc2)OCc2cc(/C=C/c3ccccc3)ccc21 (single isomer, unassigned; (+)) [(+)62] | 24°C dissociation t½ calculated to a t½ at 18°C (hSERT WT): 132.3 ± 8.5 min; [3H] S-1 dissoc. t½ (min) at 24°C (hSERT WT; 30 µM compound, 24°C, COS-7 membranes, hSERT WT): 54.9 ± 3.5 min
– | 16.3 ± 0.1 min | COc1ccccc1N1CCN(Cc2ccc3c(c2)COC3(CCCN(C)C)c2ccc(F)cc2)CC1 (stereo not drawn) [Compound 9, 3-(1-(4-Fluorophenyl)-5-((4-(2-methoxyphenyl)piperazin-1-yl)methyl)-1,3-dihydroisobenzofuran-1-yl)-N,N-dimethylpropan-1-amine] | –
– | 21.4 ± 0.3 min | CN(C)CCCC1(c2ccc(F)cc2)OCc2cc(CNCc3ccc4c(c3)COC4(CCCN(C)C)c3ccc(F)cc3)ccc21 (stereo not drawn) [Compound 15, 3-(5-((((1-(3-(Dimethylamino)propyl)-1-(4-fluorophenyl)-1,3-dihydroisobenzofuran-5-yl)methyl)amino)methyl)-1-(4-fluorophenyl)-1,3-dihydroisobenzofuran-1-yl)-N,N-dimethylpropan-1-amine] | –
– | – | CN(CCCC1(c2ccc(F)cc2)OCc2cc(C#N)ccc21)CCc1ccccc1 (stereo not drawn) [Compound 42, 1-(4-Fluorophenyl)-1-(3-(methyl(phenethyl)amino)propyl)-1,3-dihydroisobenzofuran-5-carbonitrile] | [3H] S-1 dissoc. t½ (min) at 24°C (hSERT WT): 45.4 ± 5.9 min; 24°C dissociation t½ calculated to a t½ at 18°C (hSERT WT; [2]): 110 ± 14 min
41.2 ± 2.8 min | – | CN(CCCC1(c2ccc(F)cc2)OCc2cc(C#N)ccc21)Cc1ccc(N(C)C)cc1 (stereo not drawn) [Compound 46, 1-(3-((4-(Dimethylamino)benzyl)(methyl)amino)propyl)-1-(4-fluorophenyl)-1,3-dihydroisobenzofuran-5-carbonitrile] | –
– | 17.4 ± 0.8 min | CN(C)CCCC1(c2ccc(F)cc2)OCc2cc(CN)ccc21 (stereo not drawn) [Compound 5, 3-(5-(Aminomethyl)-1-(4-fluorophenyl)-1,3-dihydroisobenzofuran-1-yl)-N,N-dimethylpropan-1-amine] | –
– | 59.6 ± 1.0 min | CN(CCCC1(c2ccc(F)cc2)OCc2cc(C#N)ccc21)Cc1csc2ccccc12 (stereo not drawn) [Compound 45, 1-(3-((Benzo[b]thiophen-3-yl-methyl)(methyl)amino)propyl)-1-(4-fluorophenyl)-1,3-dihydroisobenzofuran-5-carbonitrile] | –
– | – | CN(C)CCCC1(c2ccc(F)cc2)OCc2cc(-c3ccc([N+](=O)[O-])cc3)ccc21 (stereo not drawn) [Compound 19, 3-(1-(4-Fluorophenyl)-5-(4-nitrophenyl)-1,3-dihydroisobenzofuran-1-yl)-N,N-dimethylpropan-1-amine] | [3H] S-1 dissoc. t½ (min) at 24°C (hSERT WT): 40.2 ± 7.0 min; 24°C dissociation t½ calculated to a t½ at 18°C (hSERT WT; [2]): 97 ± 17 min
– | 24.8 ± 1.1 min | CN(C)CCCC1(c2ccc(F)cc2)OCc2cc(CN3CCN(c4cccc(Cl)c4Cl)CC3)ccc21 (stereo not drawn) [Compound 10, 3-(5-((4-(2,3-Dichlorophenyl)piperazin-1-yl)methyl)-1-(4-fluorophenyl)-1,3-dihydroisobenzofuran-1-yl)-N,N-dimethylpropan-1-amine] | –
52.0 ± 7.6 min | – | CN(CCCC1(c2ccc(F)cc2)OCc2cc(C#N)ccc21)C1CC=C(c2c[nH]c3ccccc23)CC1 (stereo not drawn) [Compound 60, 1-(3-((4-(1H-Indol-3-yl)cyclohex-3-en-1-yl)(methyl)amino)propyl)-1-(4-fluorophenyl)-1,3-dihydroisobenzofuran-5-carbonitrile] | –
– | 24.7 ± 5.4 min | CN(C)CCCC(O)(c1ccc(Br)cc1)c1ccc(C#N)cc1CO (stereo not drawn) [Compound 24, 4-(1-(4-Bromophenyl)-4-(dimethylamino)-1-hydroxybutyl)-3-(hydroxymethyl)benzonitrile] | –
22.1 ± 1.5 min | – | CN(C)CCCC1(c2ccc(F)cc2)OCc2cc(CNCc3ccc4ccccc4c3)ccc21 (stereo not drawn) [Compound 13, 3-(1-(4-Fluorophenyl)-5-(((naphthalen-2-ylmethyl)amino)methyl)-1,3-dihydroisobenzofuran-1-yl)-N,N-dimethylpropan-1-amine] | –
– | – | CNCCCC1(c2ccc(F)cc2)OCc2cc(C#N)ccc21 (stereo not drawn) [Compound 38, 1-(4-Fluorophenyl)-1-(3-(methylamino)propyl)-1,3-dihydroisobenzofuran-5-carbonitrile] | Ki (SERT): 5.04 ± 0.176 nM; Ki(NET)/Ki (SERT) (SERT; Table 3): 174.6; Ki (NET): 880 ± 12.4 nM
– | – | CN(CCCC1(c2ccc(F)cc2)OCc2cc(C#N)ccc21)Cc1ccc2c(c1)Cc1ccccc1-2 (stereo not drawn) [Compound 50, 1-(3-(((9H-Fluoren-2-yl)methyl)(methyl)amino)propyl)-1-(4-fluorophenyl)-1,3-dihydroisobenzofuran-5-carbonitrile] | Ki(NET)/Ki (SERT) (SERT; Table 3): >100
– | – | CN(C)CCCC1(c2ccc(F)cc2)OCc2cc(Br)ccc21 (stereo not drawn) [Compound 17] | Ki(NET)/Ki (SERT) (SERT; Table 1): >10,000; Ki (NET): 28400 nM
60.1 ± 1.0 min | – | CN(CCCC1(c2ccc(F)cc2)OCc2cc(C#N)ccc21)Cc1ccc2ccccc2c1 (stereo not drawn) [Compound 49, 1-(4-Fluorophenyl)-1-(3-(methyl(naphthalen-2-ylmethyl)amino)propyl)-1,3-dihydroisobenzofuran-5-carbonitrile] | –
11.4 ± 0.2 min | – | CN(C)CCCC1(c2ccc(F)cc2)OCc2cc(CNCc3ccc4c(c3)Cc3ccccc3-4)ccc21 (stereo not drawn) [Compound 14, 3-(5-((((9H-Fluoren-2-yl)methyl)amino)methyl)-1-(4-fluorophenyl)-1,3-dihydroisobenzofuran-1-yl)-N,N-dimethylpropan-1-amine] | –

Compound | [3H] S-1 dissoc. t½ (min) at 18°C (hSERT WT) | [3H] S-1 dissoc. t½ (min) at 18°C (hSERT WT; [1]) | also measured
CN(C)CCCC1(c2ccc(F)cc2)OCc2cc(/C=C/c3ccccc3)ccc21 (single isomer, unassigned; (-)) [(−)62] | – | 37.3 ± 9.5 min | –
CN(C)CCCC1(c2ccc(F)cc2)OCc2cc(I)ccc21 (stereo not drawn) [Compound 63] | – | 34.4 ± 6.6 min | –
